From PMC10343299, “S-Ethyl-Isothiocitrullin-Based Dipeptides and 1,2,4-Oxadiazole Pseudo-Dipeptides: Solid Phase Synthesis and Evaluation as NO Synthase Inhibitors” (Molecules, 2023)
Like-named read-outs stand apart in the source and are kept apart here.

Assays:
mouse iNOS = molecular target: T1, mouse iNOS (Mus musculus, UniProt P29477); assay: NOS inhibition, oxyhemoglobin (hemoglobin capture) test, recombinant iNOS; format: biochemical; conditions: recombinant enzyme, 20 µM arginine, triplicate, NI = <50% inhibition at 100 μM; for inhibition at 100 µM: read-out: IC50 (μM) iNOS (Mouse)
T1 construct: Full-length recombinant rat nNOS, mouse iNOS, bovine eNOS; made in house; host or cells: Escherichia coli
T1 sequence (P29477 1-1144): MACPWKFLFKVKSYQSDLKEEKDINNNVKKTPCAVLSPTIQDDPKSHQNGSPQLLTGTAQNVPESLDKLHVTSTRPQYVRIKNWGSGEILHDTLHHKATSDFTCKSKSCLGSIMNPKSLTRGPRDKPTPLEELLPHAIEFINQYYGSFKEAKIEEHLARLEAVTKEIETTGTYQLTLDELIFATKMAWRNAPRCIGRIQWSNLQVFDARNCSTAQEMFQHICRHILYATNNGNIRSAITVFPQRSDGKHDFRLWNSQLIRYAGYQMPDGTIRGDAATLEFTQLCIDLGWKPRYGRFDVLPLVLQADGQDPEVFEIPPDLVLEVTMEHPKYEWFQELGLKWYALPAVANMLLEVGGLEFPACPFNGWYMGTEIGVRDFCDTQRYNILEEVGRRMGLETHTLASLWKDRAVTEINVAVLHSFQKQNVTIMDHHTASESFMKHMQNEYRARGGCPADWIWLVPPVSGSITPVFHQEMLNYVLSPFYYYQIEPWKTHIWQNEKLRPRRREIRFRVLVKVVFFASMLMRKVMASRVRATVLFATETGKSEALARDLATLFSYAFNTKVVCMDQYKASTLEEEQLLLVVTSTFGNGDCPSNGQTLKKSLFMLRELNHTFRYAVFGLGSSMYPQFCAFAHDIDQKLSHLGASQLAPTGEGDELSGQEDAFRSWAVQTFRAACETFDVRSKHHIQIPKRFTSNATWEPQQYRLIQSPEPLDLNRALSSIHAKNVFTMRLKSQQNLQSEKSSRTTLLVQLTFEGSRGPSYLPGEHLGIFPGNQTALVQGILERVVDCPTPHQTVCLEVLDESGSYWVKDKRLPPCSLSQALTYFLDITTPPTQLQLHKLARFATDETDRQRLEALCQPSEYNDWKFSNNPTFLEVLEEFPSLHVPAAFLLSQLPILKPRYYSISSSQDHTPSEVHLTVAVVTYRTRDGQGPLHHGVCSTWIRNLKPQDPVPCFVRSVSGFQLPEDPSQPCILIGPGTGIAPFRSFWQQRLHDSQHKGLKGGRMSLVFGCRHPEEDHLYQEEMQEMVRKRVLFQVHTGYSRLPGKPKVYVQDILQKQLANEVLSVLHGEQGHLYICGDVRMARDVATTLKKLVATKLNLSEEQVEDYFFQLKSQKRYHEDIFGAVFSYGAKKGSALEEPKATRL
Procedure: (§1) The inhibitory effects of all compounds against the three recombinant NOSs (rat nNOS, mouse iNOS, and bovine eNOS) were evaluated in 96-well plates using the oxyhemoglobin test. A first screening at 100 and 10 μM was performed, and the IC50 values were measured for compounds showing more than 50% inhibition at 100 μM (Table 1 and Table 2).
(§2) Full-length recombinant rat nNOS, mouse iNOS, bovine eNOS, and the heme domains of rat brain nNOS and mouse iNOS were expressed in Escherichia coli and purified as described previously.
(§3) NOS catalytic activity was measured using the hemoglobin capture assay. The test was performed at 30 °C in 96-well microplates using a final volume of 200 µL. The assay mixture contained 100 µM NADPH, 10 µM BH4, 6 µM HbO2, 100 µM DTT, 5 µM FAD, 5 µM FMN, 10 µM (nNOS and eNOS), or 20 µM (iNOS) arginine, all in a 100 mM Hepes buffer, pH 7.5, and, for constitutive n- and e-NOS, 10 µg/mL calmodulin, and 1 mM CaCl2. The studied compounds were introduced as 2 μL of ×100 concentrated solutions in DMSO, and the control experiments were performed with DMSO or the buffer only. The kinetics of NO production were measured at 401 nm using an Infinite F500 microplate reader (Tecan, Singapore).

rat nNOS = molecular target: T2, rat nNOS (Rattus norvegicus, UniProt P29476); assay: NOS inhibition, oxyhemoglobin (hemoglobin capture) test, recombinant nNOS; format: biochemical; conditions: for IC50: recombinant enzyme, 10 µM arginine, triplicate, NI = <50% inhibition at 100 μM
T2 construct: Full-length recombinant rat nNOS, mouse iNOS, bovine eNOS; made in house; host or cells: Escherichia coli
Procedure: as §1, §2, §3

INS-1 cells (nNOS) = assay: Glucose-induced insulin secretion; format: cell-based; conditions: 5.6 mM glucose, no IL-1β, 1 h, compounds 500 µM to 5 mM, L-NAME 5 mM
Procedure: Indeed, pancreatic β-cells are known to constitutively express the nNOS isoform, which negatively modulates glucose-induced insulin secretion.
The insulin-secreting cell line INS-1 (a gift from Prof. C. Wolheim, Geneva, Switzerland) was cultured in RPMI-1640 supplemented with 10% FCS, 100 units/mL penicillin, 100 µg/mL streptomycin, 2 mM L-glutamine, 10 mM HEPES, 1 mM sodium pyruvate, and […] 2-mercaptoethanol, according to M. Asfari et al.’s method.
The functional effects of compounds were evaluated on INS-1 cells. Cells were preincubated for 1 h at 37 °C in a Krebs–Ringer bicarbonate buffer (108 mM NaCl, 1.19 mM KH2PO4, 4.74 mM KCl, 2.54 mM CaCl2, 1.19 mM MgSO4·7H2O, and 18 mM NaHCO3) containing 2 g/L BSA in the absence of glucose. After removal of the medium, the cells were stimulated for another hour at 37°C in the same buffer in the presence of 5.6 mM glucose and the presence of increasing concentrations of L-NAME or compounds (from 500 µM to 5 mM). At the end of the incubation period, the medium was collected, and the insulin was measured using an insulin high-range assay kit (CisBio, Codolet, France). Data are expressed as means ± SEM of the experiments (indicated in the result part).

RAW 264.7 cells = assay: Cell viability, MTT assay; format: cell-based, murine
Procedure: Cell viability was evaluated in the murine macrophage RAW 264.7 cells using an MTT assay for compounds 18, 21, 26, and 30. This experiment was performed without or with LPS (1 µg/mL), which induces iNOS expression (Figure S1). […] Compound 30 only killed 20% of the cells at 500 μM (Figure S1A). In the presence of LPS (1 µg/mL), cell viability was reduced by 30% due to the inhibition by NO of key enzymes involved in cell metabolism (Figure S1B).
The macrophage cell line RAW 264.7 (a gift from Dr. A. Blangy, Montpellier, France) was cultured in Dulbecco’s Modified Eagle’s Medium (DMEM) supplemented with 10% FCS, 100 units/mL penicillin, 100 µg/mL streptomycin, and 2 mM L-glutamine.
Cellular NO production was measured using the Griess reagent (Sigma-Aldrich), which evaluates the nitrite content in culture media. Cellular toxicity was estimated by the MTT assay (Sigma-Aldrich) in RAW 264.7 cells after the induction (or not) of iNOS by LPS, according to the manufacturer’s recommendations.

bovine eNOS = molecular target: T3, bovine eNOS (Bos taurus, UniProt P29473); assay: NOS inhibition, oxyhemoglobin (hemoglobin capture) test, recombinant eNOS; format: biochemical; conditions: recombinant enzyme, 10 µM arginine, triplicate, NI = <50% inhibition at 100 μM, read-out: IC50 (μM) eNOS (Bovine)
T3 construct: Full-length recombinant rat nNOS, mouse iNOS, bovine eNOS; made in house; host or cells: Escherichia coli

[1] = molecular target: T4, oxygenase domain of iNOS (iNOSoxy) (Mus musculus, UniProt P29477); assay: UV-visible difference spectroscopy titration of iNOSoxy; format: binding; conditions: UV/Vis difference spectroscopy, ± SD, three experiments; read-out: Apparent equilibrium constant Ks iNOSoxy
T4 construct: the oxygenase domain of nNOS (nNOSoxy) and iNOS (iNOSoxy); made in house; host or cells: Escherichia coli
T4 sequence (P29477 1-498 limits assumed): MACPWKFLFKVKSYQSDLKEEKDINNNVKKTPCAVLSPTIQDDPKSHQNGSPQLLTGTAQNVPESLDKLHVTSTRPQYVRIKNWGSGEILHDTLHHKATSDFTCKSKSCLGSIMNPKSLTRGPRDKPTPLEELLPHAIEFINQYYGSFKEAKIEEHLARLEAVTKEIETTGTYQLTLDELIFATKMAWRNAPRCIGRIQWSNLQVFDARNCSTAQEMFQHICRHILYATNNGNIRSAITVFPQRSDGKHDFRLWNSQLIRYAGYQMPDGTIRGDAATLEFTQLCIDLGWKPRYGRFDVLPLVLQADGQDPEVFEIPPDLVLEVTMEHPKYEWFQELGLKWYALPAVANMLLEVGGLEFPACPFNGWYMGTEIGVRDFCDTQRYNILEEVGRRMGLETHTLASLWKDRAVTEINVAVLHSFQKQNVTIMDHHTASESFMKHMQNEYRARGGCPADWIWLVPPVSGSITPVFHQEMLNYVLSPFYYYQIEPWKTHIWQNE
Excerpt: (§4) We performed UV–visible difference spectroscopy to analyze the interaction mode of some inhibitors with the heme-active site of NOS [54]. We have studied the effects of dipeptide-like compounds 7, 17, 19, 23, and 27 and 1,2,4-oxadiazole 35 on the UV–visible spectra of the oxygenase domain of nNOS (nNOSoxy) and iNOS (iNOSoxy). As expected, when added stepwise to n- and iNOSoxy, all selected compounds elicited different spectra with a trough at ~425 nm and a peak at ~395 nm, similar to the substrate L-arginine. This profile is characteristic of type I interactions, meaning that they are bound in close proximity to the heme prosthetic group and shifted the spin state equilibrium to the pentacoordinated heme–Fe^III state. Double reverse plotting of the differences in absorbance between the peak at ~395 nm and valley at ~425 nm (ΔA395–425 nm) as a function of the concentration of the added compounds allowed calculating apparent binding constants (Ks) (Table 3). The reference inhibitor SEITU [55] tightly bound both NOS isoforms with high affinity but no selectivity. With the exception of the dipeptide-like 27 and the heterocyclic analog 35, which similarly interacted with both proteins, other compounds preferentially bound nNOSoxy over iNOSoxy with apparent affinities close to SEITU for this isoform.
as §2
(§5) This study was performed as previously described.

[2] = molecular target: T5, oxygenase domain of nNOS (nNOSoxy) (Rattus norvegicus, UniProt P29476); assay: UV-visible difference spectroscopy titration of nNOSoxy; format: binding; conditions: UV/Vis difference spectroscopy, ± SD, three experiments; read-out: Apparent equilibrium constant Ks nNOSoxy
T5 construct: the oxygenase domain of nNOS (nNOSoxy) and iNOS (iNOSoxy); made in house; host or cells: Escherichia coli
Excerpt: as §4, §2, §5

iNOS = tested on: iNOS; set-up: method as in PMID 32027778; conditions: Figure 1; previously described compounds; cited from earlier work
nNOS = tested on: nNOS; set-up: method as in PMID 32027778; conditions: Figure 1; previously described compounds; cited from earlier work
eNOS = tested on: eNOS; set-up: method as in PMID 32027778; conditions: Figure 1; previously described compounds; cited from earlier work

T5 sequence (P29476 1-720 limits assumed): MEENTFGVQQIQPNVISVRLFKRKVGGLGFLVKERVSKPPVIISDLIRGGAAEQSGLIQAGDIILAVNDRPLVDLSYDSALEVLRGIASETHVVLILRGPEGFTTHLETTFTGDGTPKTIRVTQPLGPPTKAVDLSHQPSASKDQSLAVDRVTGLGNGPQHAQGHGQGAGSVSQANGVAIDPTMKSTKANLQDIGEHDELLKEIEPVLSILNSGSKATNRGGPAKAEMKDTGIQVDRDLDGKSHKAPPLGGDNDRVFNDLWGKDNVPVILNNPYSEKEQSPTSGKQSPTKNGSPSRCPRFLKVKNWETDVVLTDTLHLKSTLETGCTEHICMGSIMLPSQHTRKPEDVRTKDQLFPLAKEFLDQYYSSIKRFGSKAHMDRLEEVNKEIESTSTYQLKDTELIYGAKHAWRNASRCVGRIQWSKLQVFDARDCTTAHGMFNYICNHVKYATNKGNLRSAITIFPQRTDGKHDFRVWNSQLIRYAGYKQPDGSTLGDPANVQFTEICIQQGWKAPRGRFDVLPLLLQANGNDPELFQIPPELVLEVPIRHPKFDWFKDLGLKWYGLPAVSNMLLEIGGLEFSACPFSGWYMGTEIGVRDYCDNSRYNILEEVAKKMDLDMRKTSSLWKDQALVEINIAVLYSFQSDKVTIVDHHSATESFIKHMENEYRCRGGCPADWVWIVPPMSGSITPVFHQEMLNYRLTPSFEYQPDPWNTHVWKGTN
T2 sequence (P29476 whole entry): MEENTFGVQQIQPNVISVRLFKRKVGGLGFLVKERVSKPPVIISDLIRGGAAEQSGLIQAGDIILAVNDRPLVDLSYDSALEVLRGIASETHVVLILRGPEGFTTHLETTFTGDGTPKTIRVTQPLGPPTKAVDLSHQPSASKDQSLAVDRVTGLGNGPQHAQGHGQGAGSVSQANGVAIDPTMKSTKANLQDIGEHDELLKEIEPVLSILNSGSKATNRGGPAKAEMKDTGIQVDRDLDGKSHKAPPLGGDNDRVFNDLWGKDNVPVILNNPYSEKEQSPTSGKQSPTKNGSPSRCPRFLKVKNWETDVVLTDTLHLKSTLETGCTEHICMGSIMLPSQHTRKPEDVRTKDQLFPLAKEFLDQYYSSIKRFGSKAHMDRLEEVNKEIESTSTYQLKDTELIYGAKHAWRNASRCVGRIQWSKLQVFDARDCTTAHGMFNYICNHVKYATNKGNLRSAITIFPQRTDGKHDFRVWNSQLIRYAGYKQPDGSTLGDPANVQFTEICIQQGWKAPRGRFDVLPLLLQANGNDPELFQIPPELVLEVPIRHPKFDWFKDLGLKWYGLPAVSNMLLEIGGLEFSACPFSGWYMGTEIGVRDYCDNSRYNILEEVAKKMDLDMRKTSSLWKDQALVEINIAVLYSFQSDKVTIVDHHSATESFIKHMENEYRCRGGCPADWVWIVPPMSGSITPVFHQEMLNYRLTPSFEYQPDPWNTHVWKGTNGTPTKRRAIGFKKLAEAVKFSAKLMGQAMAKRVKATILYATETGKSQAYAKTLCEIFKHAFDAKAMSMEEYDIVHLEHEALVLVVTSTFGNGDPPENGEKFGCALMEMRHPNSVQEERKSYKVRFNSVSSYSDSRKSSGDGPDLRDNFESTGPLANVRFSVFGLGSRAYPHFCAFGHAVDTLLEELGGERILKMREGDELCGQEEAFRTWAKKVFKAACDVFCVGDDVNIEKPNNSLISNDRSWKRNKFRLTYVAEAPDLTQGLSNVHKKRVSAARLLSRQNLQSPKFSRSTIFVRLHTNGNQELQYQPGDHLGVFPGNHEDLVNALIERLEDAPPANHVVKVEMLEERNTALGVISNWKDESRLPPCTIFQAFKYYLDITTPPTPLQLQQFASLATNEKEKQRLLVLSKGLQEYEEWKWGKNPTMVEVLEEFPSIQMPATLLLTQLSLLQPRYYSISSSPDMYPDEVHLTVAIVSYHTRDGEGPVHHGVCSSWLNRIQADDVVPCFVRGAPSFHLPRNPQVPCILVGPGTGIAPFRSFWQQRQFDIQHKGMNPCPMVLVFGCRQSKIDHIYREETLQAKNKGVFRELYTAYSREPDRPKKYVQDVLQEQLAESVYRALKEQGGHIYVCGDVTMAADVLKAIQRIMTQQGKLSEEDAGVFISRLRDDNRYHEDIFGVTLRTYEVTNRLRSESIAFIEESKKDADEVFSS
T3 sequence (P29473 whole entry): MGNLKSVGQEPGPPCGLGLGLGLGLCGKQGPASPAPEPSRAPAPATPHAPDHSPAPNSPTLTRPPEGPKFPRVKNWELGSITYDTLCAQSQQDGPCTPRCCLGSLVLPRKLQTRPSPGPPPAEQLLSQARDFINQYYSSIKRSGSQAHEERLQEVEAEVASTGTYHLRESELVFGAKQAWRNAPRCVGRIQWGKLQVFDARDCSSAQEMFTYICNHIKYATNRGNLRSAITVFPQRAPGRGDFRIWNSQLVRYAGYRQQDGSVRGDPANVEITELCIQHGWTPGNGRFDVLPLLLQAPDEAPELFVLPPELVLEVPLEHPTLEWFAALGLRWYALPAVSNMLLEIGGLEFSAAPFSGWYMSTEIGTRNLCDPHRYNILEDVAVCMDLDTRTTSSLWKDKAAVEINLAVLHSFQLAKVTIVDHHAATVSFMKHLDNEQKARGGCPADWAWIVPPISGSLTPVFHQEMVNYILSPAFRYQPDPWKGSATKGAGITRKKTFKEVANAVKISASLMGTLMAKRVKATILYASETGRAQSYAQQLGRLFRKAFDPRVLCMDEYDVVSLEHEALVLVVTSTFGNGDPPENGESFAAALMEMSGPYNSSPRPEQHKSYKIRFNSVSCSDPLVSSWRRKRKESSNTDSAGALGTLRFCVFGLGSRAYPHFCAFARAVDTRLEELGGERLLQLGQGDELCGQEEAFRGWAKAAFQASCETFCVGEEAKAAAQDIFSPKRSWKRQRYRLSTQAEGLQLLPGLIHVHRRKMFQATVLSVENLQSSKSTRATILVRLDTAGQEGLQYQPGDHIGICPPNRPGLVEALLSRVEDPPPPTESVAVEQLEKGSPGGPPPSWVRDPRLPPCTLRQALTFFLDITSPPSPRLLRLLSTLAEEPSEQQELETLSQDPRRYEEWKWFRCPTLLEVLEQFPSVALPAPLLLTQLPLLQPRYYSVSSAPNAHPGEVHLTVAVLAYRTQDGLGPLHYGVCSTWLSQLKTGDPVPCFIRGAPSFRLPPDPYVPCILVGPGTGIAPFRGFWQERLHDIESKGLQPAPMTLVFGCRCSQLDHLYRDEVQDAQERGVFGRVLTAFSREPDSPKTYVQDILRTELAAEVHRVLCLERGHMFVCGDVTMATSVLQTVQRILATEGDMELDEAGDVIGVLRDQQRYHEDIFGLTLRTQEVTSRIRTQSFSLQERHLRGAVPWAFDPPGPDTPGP

IC50 (mouse iNOS; dipeptide-like series)	IC50 (rat nNOS; dipeptide-like series)	inhibition at 100 µM (bovine eNOS; dipeptide-like series)	Kd [1]	Kd [2]	SMILES	Effect on insulin secretion (INS-1 cells (nNOS))	further results
27.8 µM	5.4 µM				CCSC(=N)NCCC[C@H](N)C(=O)N[C@H]1CCCN(Cc2cc([N+](=O)[O-])ccc2O)C1 [Compound 14]	dose-dependently stimulate glucose insulin secretion with better efficiency than L-NAME	
	6 µM	< 50%			CCSC(=N)NCCC[C@H](N)C(=O)N[C@H]1CCCN(Cc2ccc(C(F)(F)F)c(Cl)c2)C1 [Compound 18]	dose-dependently stimulate glucose insulin secretion with better efficiency than L-NAME	inhibition at 100 µM (mouse iNOS; dipeptide-like series): < 50%; Reversal of LPS-induced reduction of cell viability (RAW 264.7 cells; RAW 264.7, LPS 1 µg/mL): none partially reversed the LPS effect; Effect on cell viability (MTT) (RAW 264.7 cells; RAW 264.7, absence of LPS, up to 100 μM): fully toxic
	7.7 µM	< 50%	96 ± 36 µM	5.2 ± 1.1 µM	CCSC(=N)NCCC[C@H](N)C(=O)N[C@H]1CCCN(Cc2ccccc2C(F)(F)F)C1 [Compound 19]		inhibition at 100 µM (mouse iNOS; dipeptide-like series): < 50%
11.9 µM	12.7 µM	< 50%			CCSC(=N)NCCC[C@H](N)C(=O)N[C@H]1CCCN(Cc2ccc3ccccc3c2)C1 [Compound 22]	dose-dependently stimulate glucose insulin secretion with better efficiency than L-NAME	
46.9 µM	5.4 µM	< 50%	92.5 ± 8.8 µM	11.4 ± 3.8 µM	CCSC(=N)NCCC[C@H](N)C(=O)N[C@H]1CCCN(Cc2ccc(-c3ccccc3)cc2)C1 [Compound 23]		
			42.4 ± 8.7 µM	47.1 ± 13 µM	CCSC(=N)NCCC[C@H](N)c1nc(CCN(Cc2ccc3ccccc3c2)Cc2ccc3ccccc3c2)no1 [Compound 35]		IC50 (mouse iNOS; 1,2,4-oxadiazole series): 11.7 µM; IC50 (rat nNOS; 1,2,4-oxadiazole series): 0.4 µM; Selectivity for nNOS against eNOS (rat nNOS; from IC50 values): > 250 fold; Selectivity for nNOS against iNOS (rat nNOS; from IC50 values): approximately 30 fold; inhibition at 100 µM (bovine eNOS; 1,2,4-oxadiazole series): < 50%
					CCSC(=N)NCCC[C@H](N)c1nc(C)no1 [JMV3457]		IC50 (iNOS): 19 µM; IC50 (nNOS): 9.4 µM; IC50 (eNOS): 45 µM
					CCSC(=N)NCCC[C@H](N)C(=O)NCCCN [JMV4246]		IC50 (iNOS): 48 µM; IC50 (nNOS): 6.6 µM; IC50 (eNOS): 52 µM
					COC(=O)[C@@H](N)CCCNC(N)=N[N+](=O)[O-] [L-NAME, reference compound]	potentiated insulin release	
